Article PMC9587990, “Molecular basis for isoform-selective inhibition of presenilin-1 by MRK-560” (Nature Communications, 2022)
Several values for one entry are separate records, joined by “and”; a condition that tells them apart may be missing. Equal entries are not always repeated. Entries after “also recorded” stand apart in the source; their conditions may differ. Where two headings read alike, the source gives them in different places.

Assays:
[1] = target: T1, PS1-complex (WT PS1-containing γ-secretase) (Homo sapiens, UniProt P49768); experiment: in vitro cleavage assay, Aβ40 production by AlphaLISA; type: biochemical; conditions: for remaining activity at 0.002 µM / remaining activity at 0.01 µM / remaining activity at 0.04 µM / remaining activity at 0.2 µM / remaining activity at 1 µM / remaining activity at 10 µM: 4 h
T1 construct: made in house; host or cells: mammalian cells (HEK293F is stated for the cryo-EM samples)
Experimental: (§1) The PS1- or PS2 complexes were expressed and purified as described. To validate the inhibitory effect of MRK-560 (Fig. 1a), we reconstituted an in vitro cleavage assay using the purified PS1- or PS2 complexes. Production of Aβ40, which is the major cleavage product among the varying lengths of Aβs, and AICD, whose cleavage reflects the endopeptidase activity of γ-secretase, are measured with AlphaLISA and western blots, respectively. All proteins used for the activity assay were sub-cloned, expressed and purified as described. Protein concentration was determined using the Bradford method. […] The cleavage reaction was conducted at 37 °C for 4 h. The cleaved products of these substrates were detected using a monoclonal antibody (1:1000 dilution, CW0299, CWBio) against the C-terminal Myc tag. Aβ40 production was detected using the AlphaLISA assay (PerkinElmer) as described. The IC50 values and the inhibition curves were calculated using Prism 8.0. Statistical analysis of Aβ40 was performed using Prism 8 (GraphPad Software, San Diego, CA, USA). IC50 were determined by a four-parameter logistic regression. The statistical details can be found in Figs. 1, 4 and legends. Data are expressed as mean ± SD.

[2] = target: T2, PS2-complex (WT PS2-containing γ-secretase) (Homo sapiens, UniProt P49810); experiment: as above; type: biochemical; conditions: for remaining activity at 0.002 µM / remaining activity at 0.01 µM / remaining activity at 0.04 µM / remaining activity at 0.2 µM / remaining activity at 1 µM / remaining activity at 10 µM: 4 h; for remaining activity at 0.002 µM / remaining activity at 0.01 µM / remaining activity at 0.04 µM / remaining activity at 0.2 µM / remaining activity at 1 µM / remaining activity at 10 µM / Caculated Aβ40 production / raw data from α-Lisa reading: PS2 WT
T2 construct: made in house; host or cells: mammalian cells (HEK293F is stated for the cryo-EM samples)
Experimental: as §1

[3] = target: T3, WT PS1-complex (Homo sapiens, UniProt P49768); experiment: in vitro cleavage assay, AICD production by western blot; type: biochemical; conditions: 200 nM MRK-560, WT PS1-complex
T3 construct: made in house; host or cells: mammalian cells (HEK293F is stated for the cryo-EM samples)
Experimental: (§2) The PS1- or PS2 complexes were expressed and purified as described. To validate the inhibitory effect of MRK-560 (Fig. 1a), we reconstituted an in vitro cleavage assay using the purified PS1- or PS2 complexes. Production of Aβ40, which is the major cleavage product among the varying lengths of Aβs, and AICD, whose cleavage reflects the endopeptidase activity of γ-secretase, are measured with AlphaLISA and western blots, respectively.
(§3) Release of AICD in the presence of decreasing concentrations of MRK-560 from 10 μM to 2 nM was monitored by western blot with the primary monoclonal antibody against the C-terminal Myc tag. The production of AICD was quantified by ImageJ. Red asterisks indicate the first concentration where the normalized production of AICD was reduced to less than 20%. Each cleavage assay in (b–d) was repeated for three times. Error bars: SD. Source Data is available as a Source Data file.
(§4) All proteins used for the activity assay were sub-cloned, expressed and purified as described. Protein concentration was determined using the Bradford method. […] The cleaved products of these substrates were detected using a monoclonal antibody (1:1000 dilution, CW0299, CWBio) against the C-terminal Myc tag. Aβ40 production was detected using the AlphaLISA assay (PerkinElmer) as described. The IC50 values and the inhibition curves were calculated using Prism 8.0.

[4] = target: T4, WT PS2-complex (Homo sapiens, UniProt P49810); experiment: as above; type: biochemical; conditions: 10 μM MRK-560, WT PS2-complex
T4 construct: made in house; host or cells: mammalian cells (HEK293F is stated for the cryo-EM samples)
Experimental: as §2, §3, §4

[5] = system: PS2 variants; experiment: as above; type: biochemical, human; conditions: PS2 variants versus WT PS2
Experimental: Fig. 4 Thr281 and Leu282 of PS1 determine the isoform selectivity of MRK-560. a–c Individual and double residue swapping of Thr281 and Leu282 in PS1 with the corresponding Pro287 and Ile288 in PS2 alter their respective sensitives to MRK-560 accordingly. IC50 values for MRK-560 inhibition of the indicated PS1 (a) and PS2 (b) mutants were measured using the AlphaLISA assay that detects Aβ40 production. Please refer to Methods for experimental details. Data are presented as mean values ± SD. c Production of AICD by residue-swapped PS1 and PS2 mutants. The amount of AICD generated by the indicated variants in the presence of serial diluted MRK-560 is consistent with the corresponding IC50 shown in (a, b). […] The production of AICD was quantified by ImageJ. Red asterisks indicate the first concentration where the normalized production of AICD was reduced to less than 20%. Source data are provided as a Source Data file. […]
as §4

[6] = system: PS1-complex over PS2; conditions: cited from earlier work
[7] = PS1 WT, MRK-560 2 nM, replicates
[8] = PS1 WT, MRK-560 10 nM, replicates
[9] = PS1 WT, MRK-560 40 nM, replicates
[10] = PS1 WT, MRK-560 200 nM, replicates
[11] = PS1 WT, MRK-560 1 μM, replicates
[12] = PS1 WT, MRK-560 10 μM, replicates

O=S(=O)(NC1CCC(c2cc(F)ccc2F)(S(=O)(=O)c2ccc(Cl)cc2)CC1)C(F)(F)F (stereo not drawn) [MRK-560, N-[cis-4-[(4-chlorophenyl)sulfonyl]-4-(2,5-difluorophenyl)cyclohexyl]-1,1,1-trifluoromethanesulfonamide]
remaining activity at 0.002 µM ([1]; PS1 WT, MRK-560 2 nM, mean of 3 replicates, read-out: Normalized production (control=1), Mean): 101%
remaining activity at 0.002 µM ([1]; PS1 WT, MRK-560 2 nM, replicates, read-out: Normalized production (control=1)): 102%
remaining activity at 0.01 µM ([1]; PS1 WT, MRK-560 10 nM, mean of 3 replicates, read-out: Normalized production (control=1), Mean): 92.4%
remaining activity at 0.01 µM ([1]; PS1 WT, MRK-560 10 nM, replicates, read-out: Normalized production (control=1)): 90.9%
remaining activity at 0.04 µM ([1]; PS1 WT, MRK-560 40 nM, mean of 3 replicates, read-out: Normalized production (control=1), Mean): 43.2%
remaining activity at 0.04 µM ([1]; PS1 WT, MRK-560 40 nM, replicates, read-out: Normalized production (control=1)): 43.4%
remaining activity at 0.2 µM ([1]; PS1 WT, MRK-560 200 nM, mean of 3 replicates, read-out: Normalized production (control=1), Mean): 8.2%
remaining activity at 0.2 µM ([1]; PS1 WT, MRK-560 200 nM, replicates, read-out: Normalized production (control=1)): 8.25%
remaining activity at 1 µM ([1]; PS1 WT, MRK-560 1 μM, mean of 3 replicates, read-out: Normalized production (control=1), Mean): 0.63%
remaining activity at 1 µM ([1]; PS1 WT, MRK-560 1 μM, replicates, read-out: Normalized production (control=1)): 0.63%
remaining activity at 10 µM ([1]; PS1 WT, MRK-560 10 μM, mean of 3 replicates, read-out: Normalized production (control=1), Mean): 0.52%
remaining activity at 10 µM ([1]; PS1 WT, MRK-560 10 μM, replicates, read-out: Normalized production (control=1)): 0.46%
IC50 ([1]; PS1-complex WT, mean ± SD, n=3): 33 ± 2 nM
Caculated Aβ40 production [1, 7]: 346.0052 and 350.2238 and 339.9166
raw data from α-Lisa reading [1, 7]: 53851 and 52412 and 53263
Caculated Aβ40 production [1, 8]: 325.7701 and 311.5896 and 312.3355
raw data from α-Lisa reading [1, 8]: 48416 and 48522 and 50424
Caculated Aβ40 production [1, 9]: 146.9566 and 148.7756 and 148.6084
raw data from α-Lisa reading [1, 9]: 24210 and 24184 and 23927
Caculated Aβ40 production [1, 10]: 26.7052 and 28.2767 and 29.2852
raw data from α-Lisa reading [1, 10]: 4813 and 4981 and 4551
Caculated Aβ40 production [1, 11]: 2.1627 and 2.1745 and 2.1272
raw data from α-Lisa reading [1, 11]: 430 and 422 and 428
Caculated Aβ40 production [1, 12]: 1.8967 and 1.5777 and 1.8849
Normalized production (control=1) [1, 12]: 0.0055
raw data from α-Lisa reading [1, 12]: 329 and 381 and 383
remaining activity at 0.002 µM ([2]; MRK-560 2 nM, mean of 3 replicates, read-out: Normalized production (control=1), Mean): 98.5%
remaining activity at 0.002 µM ([2]; MRK-560 2 nM, replicates, read-out: Normalized production (control=1)): 96.8%
remaining activity at 0.01 µM ([2]; MRK-560 10 nM, mean of 3 replicates, read-out: Normalized production (control=1), Mean): 93.7%
remaining activity at 0.01 µM ([2]; MRK-560 10 nM, replicates, read-out: Normalized production (control=1)): 96.7%
remaining activity at 0.04 µM ([2]; MRK-560 40 nM, mean of 3 replicates, read-out: Normalized production (control=1), Mean): 94.4%
remaining activity at 0.04 µM ([2]; MRK-560 40 nM, replicates, read-out: Normalized production (control=1)): 92.8%
remaining activity at 0.2 µM ([2]; MRK-560 200 nM, mean of 3 replicates, read-out: Normalized production (control=1), Mean): 44.1%
remaining activity at 0.2 µM ([2]; MRK-560 200 nM, replicates, read-out: Normalized production (control=1)): 43.5%
remaining activity at 1 µM ([2]; MRK-560 1 μM, mean of 3 replicates, read-out: Normalized production (control=1), Mean): 9.52%
remaining activity at 1 µM ([2]; MRK-560 1 μM, replicates, read-out: Normalized production (control=1)): 8.72%
remaining activity at 10 µM ([2]; MRK-560 10 μM, mean of 3 replicates, read-out: Normalized production (control=1), Mean): 6.39%
remaining activity at 10 µM ([2]; MRK-560 10 μM, replicates, read-out: Normalized production (control=1)): 6.67%
IC50 ([2]; PS2-complex WT, mean ± SD, n=3): 173 ± 24 nM
Caculated Aβ40 production ([2]; MRK-560 2 nM, replicates): 178.2729 and 172.6848 and 175.9467
raw data from α-Lisa reading ([2]; MRK-560 2 nM, replicates): 27903 and 28403 and 28759
Caculated Aβ40 production ([2]; MRK-560 10 nM, replicates): 177.3643 and 172.5675 and 151.3305
raw data from α-Lisa reading ([2]; MRK-560 10 nM, replicates): 27885 and 24607 and 28620
Caculated Aβ40 production ([2]; MRK-560 40 nM, replicates): 171.4208 and 165.5620 and 168.4662
raw data from α-Lisa reading ([2]; MRK-560 40 nM, replicates): 26808 and 27255 and 27709
Caculated Aβ40 production ([2]; MRK-560 200 nM, replicates): 82.1115 and 77.5422 and 76.1780
raw data from α-Lisa reading ([2]; MRK-560 200 nM, replicates): 12906 and 12685 and 13645
Caculated Aβ40 production ([2]; MRK-560 1 μM, replicates): 17.8069 and 15.5539 and 17.5803
raw data from α-Lisa reading ([2]; MRK-560 1 μM, replicates): 2685 and 3025 and 3063
Caculated Aβ40 production ([2]; MRK-560 10 μM, replicates): 12.9409 and 11.9064 and 9.3762
raw data from α-Lisa reading ([2]; MRK-560 10 μM, replicates): 2072 and 1646 and 2246
Generation of AICD [3]: completely inhibited
Generation of AICD [4]: can still be detected; also recorded: could not be completely inhibited
sensitivity of AICD production to MRK-560 [5]: increased sensitivity
higher suppression of the PS1-complex over PS2 [6]: 37 folds
